Here are results for 16 compounds from US4886807A, “Novel pyrimidopyrimidine derivative, process for producing it and pharmaceutical composition” (Nippon Zoki Pharmaceutical Co., Ltd., priority 1988, dated 1989).

As usually defined, the inhibition in vivo is the drop in the measured response relative to a control, in per cent. Usually LD50 stands for the dose expected to kill half of the subjects tested. A low value points to greater toxicity.

The subject of data set [1] is PCA (passive cutaneous anaphylaxis) reaction. Briefly: Anti-allergic effect: PCA (passive cutaneous anaphylaxis) reaction in rats. Type of data set: in vivo, rats (Wister-strain, male). The conditions noted are these: oral, 1 hour before challenge; for Leak of Dye: control 10.7 ± 1.0; for inhibition in vivo at 20 mg/kg / inhibition in vivo at 50 mg/kg / inhibition in vivo at 100 mg/kg: Rattus norvegicus, inhibition of dye leakage. As to the method: PCA (passive cutaneous anaphylaxis) reaction in rats was taken as an index to an anti-allergic effect of the compound of the present invention.
In order to perform sensitization, anti-DNP-Asc (dinitrophenylated Ascaris extracts) serum diluted with saline was injected intradermally at 4 sites on the shaved back of groups of 10 Wister-strain male rats (6 weeks of age). 1 hour after oral administration of the test drug, the mixture of equivalent amounts of DNP-Asc (5 mg/ml) and 2% Evans blue were intravenously injected to generate PCA reaction. 30 minutes thereafter, rats were killed by decapitation and exsanguinated. The skin was opened in order to evaluate the leakage of blue dye. The obtained skin was dissolved in 2N potassium hydroxide, then 2N phosphoric acid and acetone were added thereto. The amount of dye was determined by measurement of absorbance at 620 nm after centrifugation.

Data set [2] can be described thus: Acute toxicity test. The conditions noted are these: mouse, in vivo, mice, mortality for 7 days after administration, probit method. As to the method:
The test compounds were administered to groups of 10 ddy-strain male mice (weighing about 20 g). LD50 values of the compounds of the invention were calculated by the probit method based on mortality for 7 days after drug administration.

Consider `CNc1ncc2c(=O)n(C)c(=O)n(C)c2n1` [compound 8, 7-methylamino-1,3-dimethylpyrimido[4,5-d]pyrimidine-2,4-dione], for which, in data set [1] (20 mg/kg), the “Leak of Dye” value is recorded as 7.6 ± 1.6 μg/site and the inhibition in vivo at 20 mg/kg came out at 29%. Moreover, in data set [1] (50 mg/kg), the “Leak of Dye” value is 2.8 ± 0.7 μg/site and the inhibition in vivo at 50 mg/kg came to 73.8%.

Take `CCn1c(=O)c2cnc(N)nc2n(CC)c1=O` [compound 17, 7-amino-1,3-diethyl-pyrimido[4,5-d]pyrimidine-2,4-dione]: in data set [1] (100 mg/kg), the “Leak of Dye” value is 2.4 ± 0.7 μg/site and the inhibition in vivo at 100 mg/kg is 77.6%.

Take `Cn1c(=O)c2cnc(-c3ccccc3)nc2n(C)c1=O` [compound 2, 7-phenyl-1,3-dimethylpyrimido[4,5-d]pyrimidine-2,4-dione]: in data set [1] (50 mg/kg), the “Leak of Dye” value came to 8.2 ± 0.9 μg/site and the inhibition in vivo at 50 mg/kg amounted to 23.4%.

With `CC(C)Cn1c(=O)n(C)c(=O)c2c(N)ncnc21` [compound 11, 5-amino-1-iso-butyl-3-methylpyrimido[4,5-d]pyrimidine-2,4-dione], in data set [1] (100 mg/kg), the “Leak of Dye” value is given as 2.9 ± 0.8 μg/site and the inhibition in vivo at 100 mg/kg was 72.9%.

In the case of `CNc1ncnc2c1c(=O)n(C)c(=O)n2C` [compound 16, 5-methylamino-1,3-dimethylpyrimido[4,5-d]pyrimidine-2,4-dione], in data set [1] (100 mg/kg), the “Leak of Dye” value is 1.7 ± 0.6 μg/site and testing at 100 mg/kg gave an inhibition in vivo of 84.1%.

As to `Cc1ncc2c(=O)n(C)c(=O)n(C)c2n1` [compound 3, 1,3,7-trimethylpyrimido[4,5-d]pyrimidine-2,4-dione], the LD50 at 168 h in data set [2] (po) is 690 mg/kg. Besides, in data set [1] (50 mg/kg), the “Leak of Dye” value amounted to 4.2 ± 0.5 μg/site and 50 mg/kg produced 60.7% inhibition in vivo.

For `Cn1c(=O)c2c(N)ncnc2n(C)c1=O` [compound 9, 5-amino-1,3-dimethylpyrimido[4,5-d]pyrimidine-2,4-dione], in data set [1] (20 mg/kg), the “Leak of Dye” value turned out to be 5.9 ± 1.2 μg/site and the inhibition in vivo at 20 mg/kg amounted to 44.9%. For the same compound, in data set [1] (100 mg/kg), the “Leak of Dye” value was 0.6 ± 0.1 μg/site and the inhibition in vivo at 100 mg/kg came out at 94.4%.

On to `Cn1c(=O)c2[nH]cnc2n(C)c1=O` [Theophylline, reference compound], for which, in data set [1] (20 mg/kg), the “Leak of Dye” value is reported as 3.5 ± 1.3 μg/site and the inhibition in vivo at 20 mg/kg turned out to be 67.3%.

With `Cn1c(=O)c2cnc(N)nc2n(-c2ccccc2)c1=O` [compound 7, 7-amino-1-phenyl-3-methylpyrimido[4,5-d]pyrimidine-2,4-dione], in data set [1] (100 mg/kg), the “Leak of Dye” value was determined as 5.4 ± 0.7 μg/site and 100 mg/kg produced 49.5% inhibition in vivo.

For the compound `CCn1c(=O)c2c(N)ncnc2n(CC)c1=O` [compound 10, 5-amino-1,3-diethylpyrimido[4,5-d]pyrimidine-2,4-dione], the LD50 at 168 h in data set [2] (po) worked out at 748 mg/kg. In addition, in data set [1] (100 mg/kg), the “Leak of Dye” value turned out to be 1.6 ± 0.4 μg/site and the inhibition in vivo at 100 mg/kg worked out at 85%.

`Cc1nc(N)c2c(=O)n(C)c(=O)n(C)c2n1` [compound 12, 5-amino-1,3,7-trimethylpyrimido[4,5-d]pyrimidine-2,4-dione] returned an LD50 at 168 h in data set [2] (po) of 707 mg/kg. Also, in data set [1] (100 mg/kg), the “Leak of Dye” value was 1.0 ± 0.3 μg/site and the inhibition in vivo at 100 mg/kg came out at 90.7%.

Regarding `Cn1c(=O)c2c(N)nc(N)nc2n(C)c1=O` [compound 14, 5,7-diamino-1,3-dimethylpyrimido[4,5-d]pyrimidine-2,4-dione], in data set [1] (100 mg/kg), the “Leak of Dye” value came out at 1.9 ± 0.5 μg/site and the inhibition in vivo at 100 mg/kg was found to be 82.2%.

`Cn1c(=O)c2cnc(C(F)(F)F)nc2n(C)c1=O` [compound 4, 7-trifluoromethyl-1,3-dimethylpyrimido[4,5-d]pyrimidine-2,4-dione]: in data set [1] (50 mg/kg), the “Leak of Dye” value stood at 6.6 ± 1.1 μg/site and the inhibition in vivo at 50 mg/kg was 38.3%.

For the compound `Cn1c(=O)c2cnc(N)nc2n(C)c1=O` [compound 6, 7-amino-1,3-dimethylpyrimido[4,5-d]pyrimidine-2,4-dione], the LD50 at 168 h in data set [2] (ip) stood at 140 mg/kg; in data set [2] (po), 940 mg/kg. In addition, the “Leak of Dye” value is 5.0 ± 0.9 μg/site in data set [1] (20 mg/kg), 2.3 ± 0.7 μg/site in data set [1] (50 mg/kg) and 0.7 ± 0.2 μg/site in data set [1] (100 mg/kg). The compound also came in with an inhibition in vivo at 20 mg/kg in data set [1] (20 mg/kg) of 53.3%. The inhibition in vivo at 50 mg/kg in data set [1] (50 mg/kg) turned out to be 78.5%. In data set [1] (100 mg/kg), the inhibition in vivo at 100 mg/kg amounted to 93.5%.

Take `Cn1c(=O)c2cncnc2n(C)c1=O` [compound 5, 1,3-dimethylpyrimido[4,5-d]pyrimidine-2,4-dione]: in data set [1] (50 mg/kg), the “Leak of Dye” value is given as 4.1 ± 0.8 μg/site and at 50 mg/kg the inhibition in vivo was 61.7%.

`CC(C)Cn1c(=O)n(C)c(=O)c2cnc(N)nc21` [compound 18, 7-amino-1-iso-butyl 3-methylpyrimido[4,5-d]pyrimidine-2,4-dione]: in data set [1] (100 mg/kg), the “Leak of Dye” value is 4.0 ± 0.6 μg/site and testing at 100 mg/kg gave an inhibition in vivo of 62.6%.
